Read-outs that look alike come from different tables or passages of the source.
Key:
Type in all cases: in vivo
[1] = test system: cat flea (Ctenocephalides felis); assay: Ctenocephalides felis adulticide assay: dose response (LC50)
In short: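 Groups of 15 adult cat fleas, 3–7 days post-emergence, were exposed for 24 h at 25° C and 75% humidity to glass flask bases coated with six serial doses in acetone and dried for 24 h. Mortality was scored at 8 and 24 h, and LC50 was the surface-treatment concentration killing 50%.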

[2] = test system: Brown Dog Tick (Rhipicephalus sanguineus); assay: Rapid screening protocol for topical application on brown dog ticks; conditions: 48 h; Laboratory 2 F data
Method: d) Rapid Screening Protocol for Topical Application on Brown Dog Ticks (Rhipicephalus sanguineus)
The aim of the test was to determine the presence of significant acaricidal activity in sample compounds or formulations when applied topically on brown dog ticks. A tick was defined as dead if it gave no apparent response when touched lightly and observed for 1 minute. […] Both permethrin and fipronil were employed as reference compounds. The insect species tested was the Brown Dog Tick (Rhipicephalus sanguineus). Mixed sex adult ticks were used for tests. The strain used was cultured by von Berky Veterinary Services, Woody Point, QLD, AU and supplied as unfed adult ticks (mixed sex). Ticks were maintained in controlled conditions (temp. 18°+2° C., humidity 75±5% RH).
Temperature was maintained at 25±1° C. and the humidity was ambient. […] Ticks were each treated on the abdomen with 1 μL of a single dose level of test sample in acetone; ten ticks were treated with solvent only (acetone) in each test. Tests were replicated 4 times (total of 40 ticks treated). […]

[3] = test system: Brown Dog Tick (Rhipicephalus sanguineus); assay: Dose response protocol for topical application on brown dog ticks (LD50); conditions: 24 h mortality
Method: e) Dose response protocol for topical application on brown dog ticks (Rhipicephalus sanguineus): The test determines the level of insecticidal activity of sample compounds or formulations when applied topically on brown dog ticks. Sample compounds were stored prior to use in a freezer (−5±1° C.), unless otherwise specified.
• Mortality: A tick is defined as dead after it gives no apparent response when touched lightly or gently breathed upon, while observed for 30 seconds. • LD50 (Lethal Dose 50): The dose of a topically applied treatment at which 50% of the dog ticks are killed. • Reference compound: To assess an experimental compound for significant acaricidal activity a single dose level is chosen, which is based upon known results from previous experiments using a commercially available active i.e., a reference compound. The reference compound selected is one in common use, and one that has a similar mode of action against the Brown Dog Tick (i.e., the test species). • Recovery container: A recovery container consists of a 500 ml round plastic container measuring 115 mm diameter and 70 mm height, with a tight fitting lid that has 10 small (˜1 mm) holes inserted for air exchange. A 90 mm diameter piece of filter paper was placed on the bottom of the container and moistened with 1 mL of de-stilled water.
Adult, mixed sex, Brown Dog Ticks (Rhipicephalus sanguineus) were reared as follows: (i) cultured, (ii) transferred unfed, to a testing laboratory, and (iii) then maintained under controlled conditions (i.e., temp. 18°±2° C., humidity 75±5% RH). The ticks used were selected for vigor prior to testing, i.e., capable of actively walking and responsive to being touched or gently breathed upon.
During the testing, the temperature was maintained at 25±1° C., and the humidity was ambient. Seven dose levels (concentrations) of sample compound, in the form of serial dilutions in acetone, were derived from a pilot study and covered a range that produced very low to very high mortality. Groups of ten ticks were treated topically (on the abdomen) with 1 μL of a single dose level of the sample compound. Each test was replicated four times, i.e., employing a total of 40 ticks per dose level of each sample compound. As a control, ten ticks were treated with solvent only (acetone) for each test. Following the treatment, the ticks were held in recovery containers maintained under appropriate rearing conditions for 24 hours. Mortality resulting from the treatments was recorded at 24 hours. […] Press, London (1971).]

[4] = test system: cat flea (Ctenocephalides felis); assay: whole plant or invertebrate; conditions: Ctenocephalides felis
In short: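 Single-dose screen at 1.26 μg/cm^2: acetone solution dried for 24 h on a Coatasil-treated 159 mm^2 flask base, then 15 adult cat fleas aged 3-7 days per flask, four or more replicates, acetone control. Percent dead, meaning not moving or unable to right themselves, recorded after 8, 24 and/or 48 h at 25 °C and 75% RH.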

[5] = test system: Haemonchus contortus; assay: Haemonchus contortus larvacidal (larval development) assay; conditions: 144 h, read-out: Haemonchus contortus LD99
In short: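 Nematode eggs placed on agar containing compound (12 two-fold dilutions, final 0.024–50 μg/ml) and left 6 days to develop to L3. LD99 is the lowest concentration inhibiting development of 99% of larvae, derived from well titre (2^n−1) and top concentration.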

[6] = 24 h, read-out: C. felis Mortality (%) 24 h, 24 h, Laboratory 1 A data
[7] = 8 h, read-out: C. felis Mortality (%) 8 h, 8 h, Laboratory 2 B data
[8] = 24 h, read-out: C. felis Mortality (%) 24 h, 24 h, Laboratory 2 B data
[9] = 48 h, read-out: C. felis Mortality (%) 48 h, 48 h, Laboratory 2 B data

Row | Compound | C. felis LC50 ([1]; Laboratory 1 C data) [μg/cm^2] | C. felis LC50 ([1]; Laboratory 2 D data) | R. sanguineus Mortality (%) 48 h [2] [%] | R. sanguineus LD50 [3] [μg/tick] | mortality at 1.26 µg/cm2, 1.26 µg/cm2 [4, 6] [%] | mortality at 1.26 µg/cm2, 1.26 µg/cm2 [4, 7] [%] | mortality at 1.26 µg/cm2, 1.26 µg/cm2 [4, 8] [%] | mortality at 1.26 µg/cm2, 1.26 µg/cm2 [4, 9] [%] | IC99 [5] [µg/mL]
1 | CC/C(=N\OC1CCCC1)c1cc(Cl)ccc1NS(=O)(=O)C(F)(F)F [Compound 155] | 0.2 | 0.02 μg/cm^2 | 92 | 1.5 | 100 | – | – | – | –
2 | CC/C(=N\OCc1cccs1)c1cc(Cl)ccc1NS(=O)(=O)C(F)(F)F [Compound 207, N-{4-chloro-2-[1-(thiophen-2-ylmethoxyimino)propyl]phenyl}trifluoromethanesulfonamide] | – | 0.007^D μg/cm^2 | 100 | 2.5 | – | 98 | 100 | – | –
3 | C/C(=N\OC1C=CCCC1)c1cc(Cl)ccc1NS(=O)(=O)C(F)(F)F (stereo not shown) [Compound 175] | 0.1 | – | – | 4.0 | 100 | – | – | – | –
4 | CC(C)/C(=N\Oc1ccc(Cl)cc1)c1cc(Cl)ccc1NS(=O)(=O)C(F)(F)F [Compound 215, N-{4-chloro-2-[1-(4-chlorophenoxyimino)-2-methylpropyl]phenyl}trifluoromethanesulfonamide] | – | 0.07^D μg/cm^2 | 87 | 1.7 | – | 82 | 100 | – | –
5 | C/C(=N\OC(C)(C)C)c1cc(Cl)ccc1NS(=O)(=O)C(F)(F)F [Compound 223] | – | 0.04^D μg/cm^2 | 97 | 1.4 | – | 92 | 100 | – | –
6 | CCC(CC)O/N=C(\C)c1cc(Cl)ccc1NS(=O)(=O)C(F)(F)F [Compound 174] | 0.1 | – | – | 2.9 | 100 | – | – | – | –
7 | C#CCO/N=C(\C)c1cc(Cl)ccc1NS(=O)(=O)C(F)(F)F [Compound 202] | – | 0.01^D μg/cm^2 | 100 | 0.9 | – | 100 | 100 | – | –
8 | C/C(=N\OCC(F)(F)F)c1cc(Cl)ccc1NS(=O)(=O)C(F)(F)F [Compound 186] | 0.1 | 0.006 μg/cm^2 | 100 | 0.9 | – | 100 | 100 | – | –
9 | COCCO/N=C(\C)c1cc(Cl)ccc1NS(=O)(=O)C(F)(F)F [Compound 185, N-{4-chloro-2-[1-(2-methoxyethoxyimino)ethyl]phenyl}trifluoromethanesulfonamide] | 0.2 | 0.01 μg/cm^2 | 100 | 0.7 | – | 100 | 100 | – | –
10 | C/C(=N\OCC1CC1)c1cc(Cl)ccc1NS(=O)(=O)C(F)(F)F [Compound 187, N-[4-chloro-2-(1-cyclopropylmethoxyiminoethyl)phenyl]trifluoromethanesulfonamide] | 0.1 | 0.005 μg/cm^2 | 100 | 1.0 | – | 100 | 100 | – | –
11 | C#CCO/N=C(\CC)c1cc(Cl)ccc1NS(=O)(=O)C(F)(F)F [Compound 208] | – | 0.02^D μg/cm^2 | 100 | 0.8 | – | 100 | 100 | – | –
12 | CC(C)=CCO/N=C(\C)c1cc(Cl)ccc1NS(=O)(=O)C(F)(F)F [Compound 249] | – | 1.3^D μg/cm^2 | – | 3.3 | – | – | 100 | 100 | –
13 | CC/C(=N\OC1CCCCC1)c1cc(Cl)ccc1NS(=O)(=O)C(F)(F)F [Compound 157] | 0.3 | – | – | 5.7 | 100 | – | – | – | –
14 | C/C(=N\OC(C)C)c1ccc(C(F)(F)F)cc1NS(=O)(=O)C(F)(F)F [Compound 235] | – | 0.2^D μg/cm^2 | – | 2.3 | – | – | 100 | 100 | –
15 | CC/C(=N\OC(C)CC)c1cc(Cl)ccc1NS(=O)(=O)C(F)(F)F (stereo not shown) [Compound 243] | – | 0.1^D μg/cm^2 | – | 3.8 | – | – | 100 | 100 | –
16 | CC/C(=N\OCCC(C)C)c1cc(Cl)ccc1NS(=O)(=O)C(F)(F)F [Compound 247] | – | 0.1^D μg/cm^2 | – | 4.6 | – | – | 100 | 100 | –
17 | C/C(=N\Oc1ccc(F)cc1)c1cc(Cl)ccc1NS(=O)(=O)C(F)(F)F [Compound 129, N-{4-chloro-2-[1-(4-fluorophenoxyimino)ethyl]phenyl}trifluoromethanesulfonamide] | 0.05 | 0.02 μg/cm^2 | – | 1.3 | 100 | – | – | – | 1.9
18 | C/C(=N\OC(C)C1CC1)c1cc(Cl)ccc1NS(=O)(=O)C(F)(F)F (stereo not shown) [Compound 253] | – | 1.2^D μg/cm^2 | – | 3.4 | – | – | 100 | 100 | –
19 | CCON=C(c1ccccc1)c1cc(Cl)ccc1NS(=O)(=O)C(F)(F)F (single isomer, unassigned) [Compound 177, N-[4-chloro-2-(ethoxyiminophenylmethyl)phenyl]trifluoromethanesulfonamide] | 0.3 | – | – | 17.6 | 100 | – | – | – | –
20 | C=CCO/N=C(\C)c1ccc(C(F)(F)F)cc1NS(=O)(=O)C(F)(F)F [Compound 241, N-[2-(1-allyloxyiminoethyl)-5-trifluoromethylphenyl]trifluoromethanesulfonamide] | – | 0.1^D μg/cm^2 | – | 1.9 | – | – | 100 | 100 | –
21 | CCCCO/N=C(\C)c1cc(Cl)ccc1NS(=O)(=O)C(F)(F)F [Compound 244] | – | 0.07^D μg/cm^2 | – | 3.0 | – | – | 100 | 100 | –
22 | CCCCO/N=C(\CC)c1cc(Cl)ccc1NS(=O)(=O)C(F)(F)F [Compound 245] | – | 0.09^D μg/cm^2 | – | 3.9 | – | – | 100 | 100 | –
